The values that follow come from the supplement of paper PMC4862054.

Common to all, as to assay: normalised viability (% of control), CellTiter-Blue; higher = more viable cells (about 100 = DMSO control)
Holding throughout (settings): incubation time: 72 h

For experiment [1], the system named is MDA-MB-453. As to the method:
(§1)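 DSRT, CellTiter-Blue viability, 72 h incubation. Signal is normalised to DMSO and benzethonium chloride controls. Value is the normalised response at dose 6.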

Experiment [2] relates to HDQ-P1. As to the method:
as §1

The test system of experiment [3] is CAL-51. The protocol:
as §1

Experiment [4] relates to CAL-148. As to the method:
as §1

Experiment [5] concerns CAL-85-1. The protocol: as §1
Experiment [6] has as its system DU-4475. The protocol:
as §1

Experiment [7] relates to MDA-MB-453. As to the method:
(§2)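 DSRT, CellTiter-Blue viability, 72 h incubation. Signal is normalised to DMSO and benzethonium chloride controls. Value is the normalised response at dose 7.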
This is another data set of the same source.

The subject of experiment [8] is HDQ-P1. As to the method:
as §2
The source holds these as a separate data set.

The subject of experiment [9] is CAL-51. The protocol:
as §2
The source holds these as a separate data set.

The test system of experiment [10] is CAL-148. As to the method: as §2
The source holds these as a separate data set.

In experiment [11] the test system is CAL-85-1. The protocol:
as §2
This is another data set of the same source.

The test system of experiment [12] is DU-4475. As to the method: as §2
The source holds these as a separate data set.

For experiment [13], the system named is MDA-MB-453. The protocol:
(§3)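 DSRT, CellTiter-Blue viability, 72 h incubation. Signal is normalised to DMSO and benzethonium chloride controls. Value is the normalised response at dose 8.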
The source holds these as a separate data set.

The subject of experiment [14] is HDQ-P1. As to the method: as §3
This is another data set of the same source.

Experiment [15] relates to CAL-51. The protocol: as §3
The source holds these as a separate data set.

Experiment [16] deals with CAL-148. As to the method:
as §3
This is another data set of the same source.

The subject of experiment [17] is CAL-85-1. As to the method: as §3
This is another data set of the same source.

Experiment [18] concerns DU-4475. The protocol: as §3
This is another data set of the same source.

As to `Cc1cccc(-c2nn3c(c2-c2ccnc4ccc(C(N)=O)cc24)CCC3)n1` (30 nM), the normalised viability in the experiment with MDA-MB-453 [1] is 93.3%; in the experiment with HDQ-P1 [2], 100%; in the experiment on CAL-51 [3], 103%; in the experiment with CAL-148 [4], 89.8%; in the experiment on CAL-85-1 [5] it was 96.7%; in the experiment with DU-4475 [6], 95.8%.

In the case of `Cn1cc(CNCC2CCN(c3ncc(C(=O)NO)cn3)CC2)c2ccccc21` (30 nM), the normalised viability amounted to 4.37% in the experiment with MDA-MB-453 [1]; 37.5% with HDQ-P1 [2]; 70.1% in the experiment with CAL-51 [3]; 24.2% with CAL-148 [4]; 38.9% in the experiment on CAL-85-1 [5]; 29.3% in the experiment on DU-4475 [6].

For `Cc1cccc(-c2nn3c(c2-c2ccnc4ccc(C(N)=O)cc24)CCC3)n1` (100 nM), the normalised viability with MDA-MB-453 [7] turned out to be 93.4%; with HDQ-P1 [8], 120%; in the experiment on CAL-51 [9], 97.6%; in the experiment on CAL-148 [10], 104%; in the experiment with CAL-85-1 [11], 89.5%; with DU-4475 [12], 108%.

Take `Cn1cc(CNCC2CCN(c3ncc(C(=O)NO)cn3)CC2)c2ccccc21` (100 nM): the normalised viability turned out to be 2.32% with MDA-MB-453 [7]; 33.5% with HDQ-P1 [8]; 36.7% with CAL-51 [9]; 3.75% in the experiment with CAL-148 [10]; 16.6% in the experiment with CAL-85-1 [11]; 12.3% in the experiment on DU-4475 [12].

On to `COc1ccc(-c2cc3c(C)nc(N)nc3n([C@H]3CC[C@H](OCCO)CC3)c2=O)cn1` (300 nM), for which the normalised viability in the experiment on MDA-MB-453 [1] is 16.9%; with HDQ-P1 [2] it was 18%; with CAL-51 [3], 30.1%; in the experiment on CAL-148 [4], 42.2%; in the experiment on CAL-85-1 [5], 49.9%; with DU-4475 [6] it was 65.8%.

Take `Cc1cccc(-c2nn3c(c2-c2ccnc4ccc(C(N)=O)cc24)CCC3)n1` (300 nM): the normalised viability is 115% in the experiment with MDA-MB-453 [13]; 125% in the experiment with HDQ-P1 [14]; 103% in the experiment with CAL-51 [15]; 110% in the experiment on CAL-148 [16]; 108% in the experiment with CAL-85-1 [17]; 102% in the experiment on DU-4475 [18].

With `Cn1cc(CNCC2CCN(c3ncc(C(=O)NO)cn3)CC2)c2ccccc21` (300 nM), the normalised viability in the experiment on MDA-MB-453 [13] worked out at 2.81%; in the experiment on HDQ-P1 [14] it was 18.8%; in the experiment on CAL-51 [15] it was 7.57%; in the experiment on CAL-148 [16] it was 1.57%; with CAL-85-1 [17], 8.58%; in the experiment on DU-4475 [18], 2.97%.

On to `O=C(NC[C@H](O)CO)c1ccncc1Nc1ccc(I)cc1F` (300 nM), for which the normalised viability was 98% with MDA-MB-453 [1]; 57.6% with HDQ-P1 [2]; 85.9% in the experiment with CAL-51 [3]; 82.7% in the experiment with CAL-148 [4]; 77.3% in the experiment with CAL-85-1 [5]; 0.69% in the experiment with DU-4475 [6].

For the molecule `O=C(NC[C@H](O)CO)c1ccncc1Nc1ccc(I)cc1F` (1000 nM), the normalised viability with MDA-MB-453 [7] is 77.4%; with HDQ-P1 [8], 58.5%; with CAL-51 [9], 78.2%; with CAL-148 [10] it was 77.3%; in the experiment with CAL-85-1 [11] it was 65.3%; in the experiment on DU-4475 [12], 0.41%.

For `COc1ccc(-c2cc3c(C)nc(N)nc3n([C@H]3CC[C@H](OCCO)CC3)c2=O)cn1` (3000 nM), the normalised viability came to 3.88% in the experiment on MDA-MB-453 [13]; 10.7% in the experiment on HDQ-P1 [14]; 2.65% with CAL-51 [15]; 6.69% with CAL-148 [16]; 10.4% in the experiment on CAL-85-1 [17]; 6.45% in the experiment on DU-4475 [18].

Turning to `O=C(NC[C@H](O)CO)c1ccncc1Nc1ccc(I)cc1F` (3000 nM), the normalised viability in the experiment with MDA-MB-453 [13] was 57.3%; in the experiment with HDQ-P1 [14], 57.4%; with CAL-51 [15] it was 78.9%; in the experiment with CAL-148 [16], 66.8%; in the experiment with CAL-85-1 [17] it was 48%; in the experiment with DU-4475 [18], 0.63%.

On to `Nc1nc(=O)c2c([nH]1)NCC(CNc1ccc(C(=O)N[C@@H](CCC(=O)O)C(=O)O)cc1)N2C=O` (mixture of isomers) [Folinic acid] (29.7 nM), for which the normalised viability with MDA-MB-453 [1] is 99.8%; in the experiment on HDQ-P1 [2] it was 140%; with CAL-51 [3], 97.8%; with CAL-148 [4], 86.6%; in the experiment on CAL-85-1 [5] it was 100%; with DU-4475 [6], 115%.

As for `Nc1nc(=O)c2c([nH]1)NCC(CNc1ccc(C(=O)N[C@@H](CCC(=O)O)C(=O)O)cc1)N2C=O` (mixture of isomers) [Folinic acid] (99 nM), the normalised viability was found to be 103% in the experiment on MDA-MB-453 [7]; 134% in the experiment on HDQ-P1 [8]; 93% in the experiment on CAL-51 [9]; 97.8% in the experiment on CAL-148 [10]; 87.2% with CAL-85-1 [11]; 104% in the experiment with DU-4475 [12].

In the case of `Nc1nc(=O)c2c([nH]1)NCC(CNc1ccc(C(=O)N[C@@H](CCC(=O)O)C(=O)O)cc1)N2C=O` (mixture of isomers) [Folinic acid] (297 nM), the normalised viability in the experiment on MDA-MB-453 [13] turned out to be 106%; in the experiment with HDQ-P1 [14] it was 122%; in the experiment on CAL-51 [15] it was 92.8%; with CAL-148 [16] it was 95.2%; with CAL-85-1 [17], 100%; in the experiment on DU-4475 [18], 98.8%.

In the case of `O=C(Nc1c[nH]nc1-c1nc2ccc(CN3CCOCC3)cc2[nH]1)NC1CC1` [AT9283] (300 nM), the normalised viability in the experiment with MDA-MB-453 [1] worked out at 58.1%; with HDQ-P1 [2], 61.1%; in the experiment on CAL-51 [3], 59.1%; with CAL-148 [4], 61.9%; with CAL-85-1 [5], 87.7%; in the experiment on DU-4475 [6], 28.4%.

In the case of `O=C(Nc1c[nH]nc1-c1nc2ccc(CN3CCOCC3)cc2[nH]1)NC1CC1` [AT9283] (3000 nM), the normalised viability with MDA-MB-453 [13] stood at 26.9%; in the experiment on HDQ-P1 [14], 25.9%; in the experiment with CAL-51 [15], 25.5%; in the experiment with CAL-148 [16], 67.2%; with CAL-85-1 [17], 16.8%; in the experiment with DU-4475 [18] it was 0.96%.

For `COc1cc(CCc2cc(NC(=O)c3ccc(N4CC(C)NC(C)C4)cc3)n[nH]2)cc(OC)c1` (stereo not given) [AZD4547] (30 nM), the normalised viability amounted to 109% in the experiment with MDA-MB-453 [1]; 103% with HDQ-P1 [2]; 107% in the experiment on CAL-51 [3]; 105% in the experiment with CAL-148 [4]; 89.7% in the experiment with CAL-85-1 [5]; 92.7% with DU-4475 [6].

`COc1cc(CCc2cc(NC(=O)c3ccc(N4CC(C)NC(C)C4)cc3)n[nH]2)cc(OC)c1` (stereo not given) [AZD4547] (300 nM): the normalised viability in the experiment with MDA-MB-453 [13] was determined as 56.1%; in the experiment with HDQ-P1 [14] it was 117%; in the experiment with CAL-51 [15], 96.4%; in the experiment on CAL-148 [16] it was 105%; with CAL-85-1 [17], 95.5%; with DU-4475 [18], 97.8%.

For the molecule `CCC/C=C/C=C/C(=O)O[C@H]1/C(=C/C(=O)OC)C[C@H]2C[C@H]([C@@H](C)O)OC(=O)C[C@H](O)C[C@@H]3C[C@H](OC(C)=O)C(C)(C)[C@](O)(C[C@@H]4C/C(=C/C(=O)OC)C[C@H](/C=C/C(C)(C)[C@]1(O)O2)O4)O3` [Bryostatin 1] (3 nM), the normalised viability in the experiment with MDA-MB-453 [1] was 85.9%; in the experiment on HDQ-P1 [2], 78.6%; in the experiment on CAL-51 [3], 98.7%; in the experiment on CAL-148 [4] it was 85.5%; with CAL-85-1 [5], 110%; in the experiment with DU-4475 [6], 88.7%.

`CO[C@@H](C(=O)N1Cc2[nH]nc(NC(=O)c3ccc(N4CCN(C)CC4)cc3)c2C1)c1ccccc1` [Danusertib] (300 nM): the normalised viability is 60.2% with MDA-MB-453 [1]; 50.8% with HDQ-P1 [2]; 60.3% with CAL-51 [3]; 54.6% with CAL-148 [4]; 61.9% in the experiment with CAL-85-1 [5]; 57% in the experiment with DU-4475 [6].
